pEC50: −log10 of the molar value. Active and inactive are the calls of the source.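 How the source made its calls: active means EC50 under 50 µM in a live-cell viability test; inactive means the rest.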
Tested on: NB4 APL cells, proliferation, XTT absorbance
Experiment: growth inhibition of NB4 leukemia cells, dose response, AHD inhibitor project, cell-based, XTT viability (AID 1794803)

**Q.** `O=C(NCC1CCNCC1)c1cc2cc(-c3ccc(N4CCCCC4)cc3)ccc2[nH]1` was tested. Which EC50 did it give?
**A.** The EC50 was > 51 µM (inactive).

**Q.** With `O=C(NCC1CCNCC1)c1cc2ccc(-c3ccc(N4CCCCC4)cc3)cc2s1` as the compound, how does the pEC50 read?
**A.** Its pEC50 is 5.28.

**Q.** With `NC(=O)c1ccc(-c2ccc3cc(C(=O)NCC4CCNCC4)sc3c2)cc1` as the compound, how does the EC50 read?
**A.** Its EC50 is > 51 µM (inactive).

**Q.** `O=C(NCC1CCNCC1)c1cc2cc(-c3ccc(N4CCCCC4)cc3)ccc2s1` was tested. Which pEC50 did it give?
**A.** The pEC50 was 5.03.

**Q.** For `NCc1ccc(-c2ccc3cc(C(=O)NCC4CCNCC4)oc3c2)cc1`, which EC50 is on record?
**A.** Its EC50 is > 51 µM (inactive).

**Q.** `O=C(NCC1CCNCC1)c1cc2cc(-c3cn[nH]c3)ccc2[nH]1` was tested. Which EC50 did it give?
**A.** The EC50 was > 51 µM (inactive).

**Q.** `O=C(NCC1CCNCC1)c1c[nH]c2cc(-c3ccc(N4CCCC4)cc3)ccc12` was tested. Which pEC50 did it give?
**A.** Its pEC50 is 4.30.

**Q.** With `O=C(NCC1CCNCC1)c1cc2ccc(-c3ccc(N4CCCC4)cc3)cc2s1` as the compound, how does the pEC50 read?
**A.** The pEC50 was 5.00.

**Q.** How did the pEC50 turn out when `O=C(NCC1CCNCC1)c1coc2cc(-c3ccc(N4CCCCC4)cc3)ccc12` was run?
**A.** Its pEC50 is 4.96.

**Q.** `O=C(NCC1CCNCC1)c1c[nH]c2cc(-c3ccc(N4CCCCC4)cc3)ccc12` was tested. Which pEC50 did it give?
**A.** Its pEC50 is 4.49.

Source: PubChem BioAssay AID1794803 (Yongcheng Song lab at Baylor College of Medicine, 2022)
